From paper PMC6749236, “Synthesis of Novel 2-(Het)arylpyrrolidine Derivatives and Evaluation of Their Anticancer and Anti-Biofilm Activity” (Molecules, 2019)
Where “and” joins values, the source holds several entries; their conditions need not be identical. Equal values may be shown once. Marks after values point to notes of the source that are not given here.

Columns and labels:
M-Hela = test: Cytotoxicity assay (Cytell Cell Imaging, DAPI/propidium iodide), cancer cell line; assay type: cell-based; conditions: Homo sapiens; M-Hela; tested at 1–100 µM; three independent experiments; read-out: IC50 Cancer Cell Line M-Hela
Chang liver cell line = test: Cytotoxicity assay (Cytell Cell Imaging), normal cell line; assay type: cell-based; conditions: Homo sapiens, tested at 1–100 µM, three independent experiments, read-out: IC50 Normal Cell Line Chang Liver
[1] = tested on: Acinetobacter calcoaceticus VKPM B-10353; test: Biofilm formation, crystal violet assay; assay type: cell-based; conditions: A. calcoaceticus VKPM B-10353; for Biofilm Formation: control = 100%
Experimental: (§1) Bacterial strains and cultivation conditions. For the detection of biofilms, formation strains Vibrio aquamarinus DSM 26054 and Acinetobacter calcoaceticus VKPM B-10353 were used. These strains form biofilms, making them useful for studying biofilms.
(§2) The bacterial strains Acinetobacter calcoaceticus VKPM B-10353, E. coli MG1655 (pRecA-lux), and E. coli MG1655 (pSoxS-lux) were cultivated in Luria–Bertani (LB) medium under constant shaking to early exponential phase at 37 °C. Cells were used immediately for stress induction tests. One hundred micrograms of ampicillin per milliliter were added into LB medium at cultivation of E. coli MG1655 (pRecA-lux) and E. coli MG1655 (pSoxS-lux). Strain V. aquamarinus DSM 26054 was grown in LB medium supplemented with 3% NaCl.
(§3) The test compounds were dissolved in DMSO to the concentration of 1 × 10^−2 M. Then, they were diluted with ethanol. The control solutions were analogous dilutions of DMSO in ethanol. The tested compounds were also compared with the standard antibiotic azithromycin. Azithromycin was dissolved in DMSO to the concentration of 5 × 10^−3 M and then diluted with deionized water.
(§4) Test system for evaluation of biofilms production. To quantify the formation of biofilms, the crystal violet assay was used, with some modifications. The necessary concentrations of the test compounds were prepared as described above.
(§5) V. aquamarinus DSM 26054 was cultivated for 24 h in LB medium supplemented with 3% NaCl in the Innova 40R shaker incubator (New Brunswick Scientific, USA) at 25 °C and 200 rpm. A. calcoaceticus VKPM B-10353 was cultivated for 24 h in LB medium in the Innova 40R shaker incubator (New Brunswick Scientific, Enfield, CT, USA) at 30 °C and 200 rpm. Then, the suspensions of the daily culture of V. aquamarinus DSM 26054 and A. calcoaceticus VKPM B-10353 were diluted with LB medium supplemented with 3% NaCl to the density of 1 × 10^8 cells/mL.
(§6) The resulting suspension (180 μL) was added to the wells of a polystyrene microplate (Nuova Aptaca, Canelli, Italy). To some of the wells, 20 μL of the test substances at various concentrations were added. Since solvents used could also influence the biofilm formation, 20 μL of the appropriate solvent was added to the other part of the wells at same dilutions (control). Six replicates were done for each treatment and control. The microplate was covered with a lid and wrapped with Parafilm (Bemis Company, Inc., Oshkosh, WI, USA).
(§7) After incubation at 25 °C for 72 h, biofilms were stained. The contents in the wells were removed by means of a dispenser. The wells were then carefully washed three times with 250 μL of sterile saline. The microplates were shaken to remove all non-adherent bacteria. Biofilms were fixed with 200 μL of 96% ethanol for 15 min. After the microplates had dried in air, 200 μL of 0.5% crystal violet was introduced into the wells. After 10 min, the dye was removed. The excess dye was removed by washing with water three times. After the microplates were air-dried, the dye in the wells bound to biofilms was dissolved with 200 μL of 96% ethanol. The extraction level (absorption) of crystal violet by ethanol was measured after 60 minutes at a wavelength of 570 nm using a FLUOstar Omega microplate reader (BMG Labtech, Offenburg, Germany) in optical density units (OD570). The intensity of biofilm formation directly corresponds to the intensity of staining of the contents of the wells with the dye. Biofilm formation was determined by the difference between the mean OD readings obtained in the presence of compounds and the control.
(§8) Each experiment was performed in triplicate. The values were expressed as mean + SD. Student’s t-test was used to compare these values. Differences were considered statistically significant at p < 0.05.

[2] = tested on: Vibrio aquamarinus DSM 26054; test: Biofilm formation, crystal violet assay; assay type: cell-based; conditions: V. aquamarinus DSM 26054, control = 100%
Experimental: as §1, §2, §3, §4, §5, §6, §7, §8

[3] = tested on: Escherichia coli MG1655 (pRecA-lux); test: Genotoxicity, bacterial lux-biosensor; assay type: cell-based
From the text: (§9) E. coli MG1655 (pRecA-lux) was used for the evaluation of the genotoxicity of the synthesized compounds. The biosensor with the PrecA promotor fixes the presence of the factors causing damage of DNA in a cell. The biosensor E. coli MG1655 (pSoxS-lux) was used for the evaluation of prooxidant activity. The biosensor with the PsoxS promoter fixes the production of superoxide anion and NO [75]. Bioluminescent strains were obtained by the transformation of E. coli MG1655 by hybrid plasmids pRecA-lux, pSoxS-lux. The gene cassette luxCDABE Photorhabdus luminescens under the control PrecA promoters was used in this biosensor. This plasmid was created on the basis of pBR322 and contained a selective marker of ampicillin resistance (Amp gene). The strains were kindly furnished by Manukhov I.V., Federal State Unitary Enterprise “GosNIIGenetika”).
as §2
(§10) Biosensors assay procedure. The detailed protocol of toxicity testing by means of a bacterial lux-biosensors is described in the article.
(§11) Calculation. The criterion of toxic influence was bioluminescence intensity change of the test object in the researched sample in comparison with the control sample.
(§12) The induction factor (I) was defined as the relation of luminescence intensity of a lux-biosensor suspension containing tested sample (Lc) to the luminescence intensity of a lux-biosensor control suspension (Lk): I = Lc/Lk.
If at significant differences from control induction factor values were ≤2, the detected genotoxic effect was evaluated as “weak”, if they were in the range from 2 to 10 as “medium”, and above 10 as “strong”. All the experiments were carried out three times independently.
(§13) Difference reliability of bioluminescence in experiment from control value was estimated by t-criterion with the help of Excel software. The conclusions about sample toxicity were made at p < 0.05.

[4] = tested on: E. coli MG1655 (pSoxS-lux); test: Prooxidant activity, bacterial lux-biosensor; assay type: cell-based, Escherichia coli
From the text: as §9, §2, §10, §11, §12, §13

[5] = concentration range of 10^−9–10^−5 M
[6] = with metabolic activation (+S9), 10^−5 M
[7] = with metabolic activation (+S9), 10^−6 M
[8] = with metabolic activation (+S9), 10^−7 M
[9] = with metabolic activation (+S9), 10^−8 M
[10] = with metabolic activation (+S9), 10^−9 M
[11] = without metabolic activation (-S9), 10^−5 M
[12] = without metabolic activation (-S9), 10^−6 M
[13] = without metabolic activation (-S9), 10^−7 M
[14] = without metabolic activation (-S9), 10^−8 M
[15] = without metabolic activation (-S9), 10^−9 M

Structure (SMILES) | IC50 (M-Hela) [µM] | IC50 (Chang liver cell line) [µM] | Biofilm Formation ([1]; 1 × 10^−5 M) | Biofilm Formation ([1]; 1 × 10^−6 M) | Biofilm Formation ([1]; 1 × 10^−7 M) | Biofilm Formation ([1]; 1 × 10^−8 M) | Biofilm Formation ([1]; 1 × 10^−9 M) | Biofilm Formation ([2]; 1 × 10^−5 M) | Biofilm Formation ([2]; 1 × 10^−6 M) | Biofilm Formation ([2]; 1 × 10^−7 M) | Biofilm Formation ([2]; 1 × 10^−8 M) | Biofilm Formation ([2]; 1 × 10^−9 M) | Genotoxicity (induction factor, I) [3, 6] | Genotoxicity (induction factor, I) [3, 7] | Genotoxicity (induction factor, I) [3, 8] | Genotoxicity (induction factor, I) [3, 9] | Genotoxicity (induction factor, I) [3, 10] | Genotoxicity (induction factor, I) [3, 11] | Genotoxicity (induction factor, I) [3, 12] | Genotoxicity (induction factor, I) [3, 13] | further results
COc1ccc(NC(=O)N2CCCC2c2ccc(Nc3c([N+](=O)[O-])c(Cl)cc4c3no[n+]4[O-])cc2O)cc1 (stereo not drawn) [6c, 6-Chloro-4-((3-hydroxy-4-(1-((4-methoxyphenyl)carbamoyl)pyrrolidin-2-yl)phenyl)amino)-5-nitrobenzo[c][1,2,5]oxadiazole 1-oxide] | 26 ± 1.9 | 62 ± 4.3 | 82.82% | 79.31 * % | 72.77 * % | 55.74 * % | 93.75% | 26.65 * % | 18.28 * % | 9.22% and 9.22 * % | 14.67 * % | 13.54% and 13.54 * % | 1.35 ± 0.02 | 1.54 ± 0.03 | 1.49 ± 0.02 | 1.37 ± 0.02 | 1.30 ± 0.01 | 2.33 ± 0.04 | 2.82 ± 0.05 | 2.64 ± 0.14 | genotoxicity under conditions of metabolic activation, in words ([3]; +S9, concentration range of 10^−7–10^−6 M): registered; detected genotoxic effect, class [3, 5]: medium (in the range from 2 to 10); Genotoxicity (induction factor, I) [3, 14]: 2.84 ± 0.02; Genotoxicity (induction factor, I) [3, 15]: 2.67 ± 0.07; Prooxidant activity (induction factor) ([4]; 10^−5 M): 0.96 ± 0.09; Prooxidant activity (induction factor) ([4]; 10^−6 M): 1.46 ± 0.03; Prooxidant activity (induction factor) ([4]; 10^−7 M): 1.68 ± 0.20; Prooxidant activity (induction factor) ([4]; 10^−8 M): 1.54 ± 0.20; prooxidant response, in words ([4]; 10^−8–10^−7 M): weak response; Prooxidant activity (induction factor) ([4]; 10^−9 M): 1.11 ± 0.03; melting point: 196 to 202 °C (dec.)
O=C(Nc1ccccc1)N1CCCC1c1ccc(Nc2c([N+](=O)[O-])c(Cl)cc3c2no[n+]3[O-])cc1O (stereo not drawn) [6b, 6-Chloro-4-((3-hydroxy-4-(1-(phenylcarbamoyl)pyrrolidin-2-yl)phenyl)amino)-5-nitrobenzo[c][1,2,5]oxadiazole 1-oxide] | 56 ± 4.1 | > 100 | 119.69 * % | 88.44% | 73.93 * % | 70.79 * % | 90.41% | 89.12% | 39.02 * % | 26.04 * % | 15.42 * % | 8.21 * % | 1.23 ± 0.02 | 1.36 ± 0.04 | 1.30 ± 0.02 | 1.31 ± 0.01 | 1.47 ± 0.04 | 1.77 ± 0.04 | 2.15 ± 0.06 | 2.07 ± 0.11 | Biofilm formation with respect to control, over the investigated concentrations ([1]; 1 × 10^−9–1 × 10^−5 M): both suppressing and stimulating; detected genotoxic effect, class ([3]; concentration of 10^−5 M): weak (induction factor values were ≤2); detected genotoxic effect, class [3, 5]: medium (in the range from 2 to 10); Genotoxicity (induction factor, I) [3, 14]: 2.28 ± 0.12; Genotoxicity (induction factor, I) [3, 15]: 2.34 ± 0.06; Prooxidant activity (induction factor) ([4]; 10^−5 M): 0.89 ± 0.03; Prooxidant activity (induction factor) ([4]; 10^−6 M): 1.24 ± 0.11; Prooxidant activity (induction factor) ([4]; 10^−7 M): 1.04 ± 0.04; Prooxidant activity (induction factor) ([4]; 10^−8 M): 1.21 ± 0.00; Prooxidant activity (induction factor) ([4]; 10^−9 M): 1.03 ± 0.10; prooxidant activity, in words ([4]; 10^−9–10^−5 M): did not possess prooxidant activity; melting point: 165 to 170 °C (dec.)
O=C(Nc1ccc(Br)cc1)N1CCCC1c1ccc(Nc2c([N+](=O)[O-])c(Cl)cc3c2no[n+]3[O-])cc1O (stereo not drawn) [6d, 4-((4-(1-((4-Bromophenyl)carbamoyl)pyrrolidin-2-yl)-3-hydroxyphenyl)amino)-6-chloro-5-nitrobenzo[c][1,2,5]oxadiazole 1-oxide] | 25.5 ± 1.6 | 53 ± 3.8 | 89.50% | 95.71% | 50.00 * % | 46.95% and 46.95 * % | 79.16 * % | 63.12% | 24.11 * % | 10.70 * % | 6.46% and 6.46 * % | 67.29 * % | 0.66 ± 0.04 | 0.71 ± 0.03 | 0.71 ± 0.05 | 0.79 ± 0.03 | 0.76 ± 0.05 | 0.60 ± 0.02 | 0.70 ± 0.01 | 0.62 ± 0.03 | DNA-damaging property, in words ([3]; 10^−9–10^−5 M, with and without S9): do not belong to the class of DNA-damaging substances; Genotoxicity (induction factor, I) [3, 14]: 0.70 ± 0.01; Genotoxicity (induction factor, I) [3, 15]: 0.64 ± 0.03; Prooxidant activity (induction factor) ([4]; 10^−5 M): 1.10 ± 0.07; Prooxidant activity (induction factor) ([4]; 10^−6 M): 1.60 ± 0.23; prooxidant response, in words ([4]; 10^−6 M): weak response; Prooxidant activity (induction factor) ([4]; 10^−7 M): 1.11 ± 0.01; Prooxidant activity (induction factor) ([4]; 10^−8 M): 1.11 ± 0.07; Prooxidant activity (induction factor) ([4]; 10^−9 M): 1.34 ± 0.09; melting point: 166 to 170 °C (dec.)
